Experimental data: patent US20050148560A1, “Prevention and treatment of hypertensive heart diseases by the selective estrogens 8beta-vinyl-estra-1,3,5(10)-trien-3,17beta-diol and 17beta-fluor-9alpha-vinyl-estra-1,3,5(10)-trien-3,16alpha-diol” (priority 2003, published 2005)
“Also recorded” adds a separate entry of the source.

Tests used:
[1] = test system: uterus (indicator of classical ERα-mediated estrogen action); assay: Uterus fresh weight in ovariectomized SHR; assay type: in vivo, rat; conditions: ovx SHR, daily sc injection for 4 weeks; 30 μg/kg/d (estradiol 2 μg/kg/d); FIG. 1
Text: (§1) The effects of the ERβ-agonists on blood pressure (BP) in ovariectomized SHR, a widely accepted animal model of hypertensive heart disease, were investigated in three independent studies. Estradiol and the steroidal ERα agonist 3,17β-Dihydroxy-19-nor-17α-pregna-1,3,5(10)-triene-21,16α-lactone were used as references. Female spontaneously hypertensive rats (SHR-Nico; 12 weeks old; Charles River Laboratories) were used for the experiment. All animals were kept under standard conditions (eg 12 hr ON/OFF light cycle, commercial diet and water ad libitum). Animals were randomly assigned to different treatment groups as outlined below. All animals were marked individually by ear tag. Female rats (SHR; 12 weeks old) were ovarectomized (ovx) and treated for 4 weeks starting one day after ovx according to the protocol outlined below. All compounds were injected daily using ethanol (EtOH)/peanut oil 4+1 as the vehicle. [table] 12 weeks old female SHR (Charles River™) were ovariectomized or sham-operated. […] After 4 weeks treatment hemodynamic parameters were measured as described previously (Fraccarollo D, Hu K, Galuppo P, Gaudron P, Ertl G. (1997), Circulation. 1997;96:3963-3973) and animals were euthanized. Uterus fresh weight was measured as an indicator of classical ERα-mediated estrogen action.

[2] = test system: spontaneously hypertensive rats (SHR); assay: In vivo hemodynamics in ovariectomized spontaneously hypertensive rats (SHR); set-up: species or system rat; conditions: for cardiac output: FIG. 4; for blood pressure / effectiveness in lowering blood pressure relative to estradiol and the ERα agonist: ovx SHR, FIG. 3; for blood pressure: compared to vehicle treated (placebo) animals; for effectiveness in lowering blood pressure relative to estradiol and the ERα agonist: 30 μg/kg/d vs estradiol 2 μg/kg/d and ERα agonist 30 μg/kg/d
Text: The effects of the ERβ-agonists on blood pressure (BP) in ovariectomized SHR, a widely accepted animal model of hypertensive heart disease, were investigated in three independent studies. Estradiol and the steroidal ERα agonist 3,17β-Dihydroxy-19-nor-17α-pregna-1,3,5(10)-triene-21,16α-lactone were used as references. Female spontaneously hypertensive rats (SHR-Nico; 12 weeks old; Charles River Laboratories) were used for the experiment. All animals were kept under standard conditions (eg 12 hr ON/OFF light cycle, commercial diet and water ad libitum). Animals were randomly assigned to different treatment groups as outlined below. All animals were marked individually by ear tag. Female rats (SHR; 12 weeks old) were ovarectomized (ovx) and treated for 4 weeks starting one day after ovx according to the protocol outlined below. All compounds were injected daily using ethanol (EtOH)/peanut oil 4+1 as the vehicle. [table] 12 weeks old female SHR (Charles River™) were ovariectomized or sham-operated. Starting one day after ovariectomy animals were randomly selected for a daily subcutaneous injection of 17β-estradiol (E2, 2 μg/kg body weight/d), the selective ERα agonist 3,17β-Dihydroxy-19-nor-17α-pregna-1,3,5(10)-triene-21,16α-lactone (WO 02/26763) (30 μg/kg body weight/d), the selective ERβ agonist 8β-Vinyl-estra-1,3,5(10)-trien-3,17β-diol (or 17β-Fluor-9α-vinyl-estra-1,3,5(10)-trien-3,16α-diol, respectively 30 μg/kg body weight) or placebo. All animals had free access to standard rat chow and water. E2, 3,17β-Dihydroxy-19-nor-17α-pregna-1,3,5(10)-triene-21,16α-lactone and 8β-Vinyl-estra-1,3,5(10)-trien-3,17β-diol (or 17β-Fluor-9α-vinyl-estra-1,3,5(10)-trien-3,16α-diol) were dissolved in ethanol and injected daily using peanut oil as a carrier substance, placebo animals received ethanol/peanut oil alone. After 4 weeks treatment hemodynamic parameters were measured as described previously (Fraccarollo D, Hu K, Galuppo P, Gaudron P, Ertl G. (1997), Circulation. 1997;96:3963-3973) and animals were euthanized. The following parameters were determined: Systolic, diastolic, mean blood pressure; left ventricular ejection fraction; systolic and diastolic left ventricular pressure as well as the velocity of pressure increase and decrease in the left ventricle; cardiac output, cardiac index, heart rate; systemic vascular resistance. All measurements were performed at rest under isofluran anesthesia. Values are expressed as mean±SEM of parameters from different animals. Statistical analysis was performed by one-way analysis of variance (ANOVA) followed by a post hoc Bonferroni test. P values <0.05 were considered statistically significant.

[3] = Body weight of ovariectomized SHR; assay type: in vivo, rat; conditions: daily sc injection for 4 weeks, 30 μg/kg/d (estradiol 2 μg/kg/d), FIG. 2
Text: as §1, with “euthanized.” for “euthanized. Uterus fresh weight was measured as an indicator of classical ERα-mediated estrogen action.”

[4] = test system: spontaneously hypertensive rats (SHR); assay: Cardiac hypertrophy (heart weight) in ovariectomized SHR; assay type: in vivo, rat; conditions: ovx SHR, 4 weeks daily sc; 30 μg/kg/d (estradiol 2 μg/kg/d), compared to placebo treated rats; FIG. 6
Text: as §1, with “[table]” for “[table] 12 weeks old female SHR (Charles River™) were ovariectomized or sham-operated.”, “Cardiac hypertrophy in all animals was determined by measuring total heart” for “Uterus fresh”, “and subsequent normalization to tibia length. Values are expressed” for “was measured”, “mean±SEM” for “an indicator”, “parameters from different animals. […]” for “classical ERα-mediated estrogen action.”

[5] = target: T1, rat prostate estrogen receptor (ERβ containing cytosol) (Rattus norvegicus, UniProt Q62986); assay: Estrogen receptor binding, competition with [3H]-estradiol, rat prostate cytosol (compared with rat uterus cytosol); conditions: rat prostate cytosol (ERβ) vs rat uterus cytosol (ERα)
T1 construct: Receptor containing cytosol was prepared from rat prostate (ERβ containing cytosol); from tissue; host or cells: rat prostate cytosol
Experimental: The binding affinity of 8β-Vinyl-estra-1,3,5(10)-trien-3,17β-diol and 17β-Fluor-9α-vinyl-estra-1,3,5(10)-trien-3,16α-diol was determined by competition experiments using [3H]-estradiol as a ligand. Receptor containing cytosol was prepared from rat prostate (ERβ containing cytosol) and rat uterus (ERα containing cytosol).
The preparation of rat uterus cytosol and the binding study were performed as described (Stack, Gorski 1985, Endocrinology 117, 2024-2032) with some modifications as described by Fuhrmann et al. (Fuhrmann U. et al. 1995, Contraception 51: 45-52).
The preparation of rat prostate cytosol and the binding study was performed as described (Testas J. et al., 1981, Endocrinology 109: 1287-1289).

[6] = target: T2, human ERβ (Homo sapiens, UniProt Q92731); assay: Binding to human estrogen receptors expressed by the Baculovirus/SF-9-expression system; conditions: human receptors expressed by Baculovirus/SF-9-expression system
T2 construct: host or cells: Baculovirus/SF-9 expression system

[7] = ovx (estradiol-deficient) SHR, 30 μg/kg/d sc for 4 weeks

T2 sequence (Q92731 whole entry): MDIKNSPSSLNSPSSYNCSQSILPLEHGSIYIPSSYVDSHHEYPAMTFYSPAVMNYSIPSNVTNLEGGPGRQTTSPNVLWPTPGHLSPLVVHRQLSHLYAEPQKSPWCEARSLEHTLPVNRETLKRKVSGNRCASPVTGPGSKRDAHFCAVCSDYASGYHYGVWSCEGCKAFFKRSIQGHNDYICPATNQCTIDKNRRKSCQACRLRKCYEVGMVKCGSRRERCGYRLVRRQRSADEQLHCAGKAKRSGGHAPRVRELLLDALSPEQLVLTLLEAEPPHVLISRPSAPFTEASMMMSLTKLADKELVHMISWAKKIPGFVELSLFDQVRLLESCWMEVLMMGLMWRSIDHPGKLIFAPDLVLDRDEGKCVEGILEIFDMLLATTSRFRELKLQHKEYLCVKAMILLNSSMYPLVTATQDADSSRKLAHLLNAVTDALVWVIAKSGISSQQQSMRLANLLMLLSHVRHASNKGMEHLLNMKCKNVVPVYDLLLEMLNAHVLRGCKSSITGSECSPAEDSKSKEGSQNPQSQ
T1 sequence (Q62986 whole entry): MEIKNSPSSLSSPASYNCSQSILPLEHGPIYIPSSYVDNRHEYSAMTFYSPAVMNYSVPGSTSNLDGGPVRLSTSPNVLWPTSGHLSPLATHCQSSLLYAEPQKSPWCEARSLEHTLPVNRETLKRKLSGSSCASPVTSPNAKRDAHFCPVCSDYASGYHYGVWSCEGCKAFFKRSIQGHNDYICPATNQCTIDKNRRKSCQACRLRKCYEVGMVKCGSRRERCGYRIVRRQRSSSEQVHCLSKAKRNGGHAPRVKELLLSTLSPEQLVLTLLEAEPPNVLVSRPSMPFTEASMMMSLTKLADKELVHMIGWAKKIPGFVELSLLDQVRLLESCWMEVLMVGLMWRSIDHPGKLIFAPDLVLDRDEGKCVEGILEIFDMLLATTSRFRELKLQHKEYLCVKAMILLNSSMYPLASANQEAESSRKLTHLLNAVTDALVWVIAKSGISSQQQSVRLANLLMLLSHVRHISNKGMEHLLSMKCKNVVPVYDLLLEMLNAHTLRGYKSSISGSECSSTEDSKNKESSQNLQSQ

Structure (SMILES)	stimulation of uterine growth (uterine weight) [1]	cardiac index [2, 7]	cardiac output [2, 7]	left-ventricular stroke volume ([2]; ovx (estradiol-deficient) SHR, 30 μg/kg/d sc for 4 weeks, FIG. 5)	blood pressure ([2]; 30 μg/kg/d sc for 4 weeks)	effectiveness in lowering blood pressure relative to estradiol and the ERα agonist [2]	effect on ovx-induced adipose phenotype (body weight) [3]	cardiac hypertrophy (heart weight) [4]	binding affinity to rat prostate estrogen receptor compared to rat uterus estrogen receptor [5]	affinity to human ERβ compared to ERα [6]
C=C[C@@]12CCc3cc(O)ccc3[C@H]1CC[C@@]1(C)[C@H]2CC[C@@H]1O [8β-Vinyl-estra-1,3,5(10)-trien-3,17β-diol]	did neither cause stimulation of uterine growth	augmented	significant improvement of cardiac output; also recorded: increase cardiac output; also recorded: augmented	augmented	significant reduction of systolic as well as diastolic blood pressure; also recorded: lower systolic, mean and diastolic blood pressure; also recorded: lowered blood pressure levels	more effective	nor affect the ovx-induced adipose phenotype	significantly inhibited; also recorded: prevent the development of cardiac hypertrophy; also recorded: inhibitory effect on cardiac hyperthrophy as indicated by a reduction in heart weight	higher binding affinity to the rat prostate compared to rat uterus estrogen receptor	higher affinity to human ERβ compared to ERα
C=C[C@]12CC[C@]3(C)[C@@H](F)[C@H](O)C[C@H]3[C@@H]1CCc1cc(O)ccc12 [17β-Fluor-9α-vinyl-estra-1,3,5(10)-trien-3,16α-diol]			significant improvement of cardiac output; also recorded: increase cardiac output		significant reduction of systolic as well as diastolic blood pressure; also recorded: lower systolic, mean and diastolic blood pressure	more effective		significantly inhibited; also recorded: prevent the development of cardiac hypertrophy	higher binding affinity to the rat prostate compared to rat uterus estrogen receptor	higher affinity to human ERβ compared to ERα
